How the values were obtained:
Assay type in all cases: in vivo
[1] = test system: HFD-induced AD mice; assay: Neurogenesis: NeuN/BrdU double staining in HFD-induced AD mice; conditions: 5 mg/kg, vs HFD-only
Description: In order to investigate the effect of TBG096 on promoting neuronal regeneration, animal experiments were carried out according to the method previously reported. Fifteen 4-week-old ICR male mice purchased from Zhejiang Academy of Medical Sciences (Hangzhou, China) were randomly divided into three groups, namely the (i) normal control group, (ii) HFD group, and (iii) HFD + TBG096 5 mg/kg group, and given a normal diet or high-fat diet for two months to construct the AD mouse model, respectively. After confirming the successful construction of the AD model, TBG096 was administered once a day at a dose of 5 mg/kg for 1 month, and soybean oil was used as a vehicle. BrdU was then injected into the mice at a dose of 100 mg/kg in four injections over two days, each 12 h apart. Administration of TBG096 was continued for 28 days. At the end of animal experiments, the mice were anesthetized and cardiac […]. The brains of mice were taken, fixed, and sectioned, and immunostaining was performed with NeuN and BrdU antibodies.
At the end of animal experiments, three mice in each group were taken for heart perfusion with cold PBS and 4% paraformaldehyde. After that, the brains of mice were fixed with 4% paraformaldehyde for 24 h and gradually dehydrated with 15% and 30% sucrose solutions for 48 h, respectively. […]

[2] = test system: ICR mice; assay: Acute toxicity experiment in mice
Description: In the acute toxicity experiment of mice, a total of 40 ICR male mice aged 8 weeks from Zhejiang Academy of Medical Sciences (Hangzhou, China) were used. A standard experimental scheme was adopted according to the requirements of Zhejiang University Animal Experiment Ethics Committee (animal use license number: SYXK(Zhe)2019-0002, permit number: ZJU20230219). The mice were randomly divided into the following groups: (i) control group, (ii) TBG096 100 mg/kg group, (iii) TBG096 300 mg/kg group, and (iv) TBG096 600 mg/kg group. Each group had 10 mice. Soybean oil was used as a vehicle to dissolve TBG096. The body weight, food intake, and water consumption of mice in each group were recorded every day for two weeks. Blood was collected for biochemical index analysis.

[3] = test system: Wnt gene family (Wnt10b, Wnt5a, and Wnt1); assay: Transcriptome sequencing and qRT-PCR of brain samples of HFD-induced AD mice; conditions: GSEA-GO, qRT-PCR confirmed Wnt10b and Wnt5a
Description: Total RNA was extracted and quantified from 50 mg of the cerebral cortex using TRIzol reagent (Invitrogen, Carlsbad, CA, USA) and NanoDrop (Thermo Fisher Scientific, Waltham, MA, USA), respectively. Subsequently, 2.5 µg of RNA from each sample was reverse-transcribed using a HiFi-MMLV cDNA kit (Cowin Biotechnology Company, Beijing, China). Transcripts were quantified by PCR analysis performed with a CFX 96 Touch (Bio-Rad, Hercules, CA, USA) and SYBR Premixed EX Taq (Takara, Otsu, Japan). PCR was performed under the following conditions: 95 °C for 2 min, followed by 40 cycles, 94 °C for 15 s, 60 °C for 25 s, and 72 °C for 10 s. All results were normalized to the level of 18S RNA, and the relative mRNA transcription levels were estimated by 2^−ΔΔCT. The number of animal samples in each group was five, and all samples were run in triplicate, and their average values were calculated. The mouse primers of Wnt10b (NM_011718.2), Wnt5a (NM_001256224.2), and 18S RNA (NR_003278.3) were synthesized by Sangon Biotech Co., Ltd. (Shanghai, China), and their sequences are as follows: Wnt10b-sense: 5′-[…]-3′; antisense: 5′-[…]-3′. Wnt5a-sense: 5′-[…]-3′; antisense: 5′-[…]-3′. 18S-sense: 5′-[…]-3; antisense: 5′-[…]-3′.
After extracting total RNA (5 µg) from cerebral cortex samples, mRNA was purified using Dynabeads Oligo(dT) (Thermo Fisher, Waltham, MA, USA), involving two purification steps. […]

In the case of O=C(SCCCCCCSCCCC(F)(F)F)c1cccc(O)c1O [TBG096], the “number of NeuN+ and BrdU+ neurons in the cerebral cortex” value [1] is reported as “increased numbers”, the “number of newborn neurons in the hippocampus” value [1] is reported as “elevated” and the “acute toxicity in mice” value ([2]; mouse, in vivo) is reported as “does not exhibit acute toxicity”. For the same molecule, the “body weight, food intake, water consumption” value ([2]; oral 100, 300, and 600 mg/kg, two weeks, mice) was “no significant differences”, the “serum biochemical indices (AST, ALT, AST/ALT, ALB, DBIL)” value ([2]; oral 100, 300, and 600 mg/kg, vs control group, mice) was “no significant changes” and the “expression of the Wnt gene family (Wnt10b, Wnt5a, and Wnt1)” value [3] was “enhancing the expression”.

Reference: paper PMC11943016, “TBG096 Ameliorates Memory Deficiency in AD Mouse Model via Promoting Neurogenesis and Regulation of Hsc70/HK2/PKM2/LAMP2A Signaling Pathway” (International Journal of Molecular Sciences, 2025)
